From US20230372433A1, “NANOPARTICLE FOR ANTI-CANCER PEPTIDES AND USES THEREOF” (KING'S COLLEGE LONDON, priority 2020, published 2023)

Tests used:
[1] = test system: HMLER (human breast cancer bulk cell); test: MTT cytotoxicity assay, HMLER; type: cell-based; conditions: 72 hr, MTT; read-out: IC50 HMLER
[2] = test system: HMLER-shEcad (human breast cancer stem cell); test: MTT cytotoxicity assay, HMLER-shEcad; type: cell-based; conditions: 72 hr, MTT; read-out: IC50 HMLER-shEcad
[3] = test system: HEK293T (human embryonic kidney cell); test: MTT cytotoxicity assay, HEK293T; type: cell-based; conditions: 72 hr, MTT; read-out: IC50 HEK293T
[4] = Tryptophan fluorescent binding assay, POPC vesicles; conditions: 50 μM peptide, PBS pH 7.4
Description: (§1) In brief, 50 μM peptides were fixed and incubated with titrated POPC vesicles (black) or 3POPC/1POPG vesicles (grey) at concentrations of 0, 12.5, 25, 50, 100, 250, 500, 1000, 2500, and 5000 μM in phosphate buffered saline (1X, pH 7.4). The lipid concentration that causes 50% peptide binding was determined using a tryptophan fluorescent binding assay and the values are shown as lipid per peptide.
(§2) The lipids 1-palmitoyl-2-oleoyl-sn-glycero-3-phosphocholine (POPC), 1-palmitoyl-2-oleoyl-snglycero-3-phospho-(1′-rac-glycerol) (POPG) were purchased from Avanti Polar Lipids and dissolved in chloroform. Large unilamellar vesicles (LUVs) were produced by extrusion through 100 nm pore filter using an extruder and filters purchased from Avanti Polar Lipids.
(§3) Peptides (50 μM) and POPC/POPG LUVs (600 μM) were prepared in 10 mM phosphate buffer (pH 7.0). The solutions were incubated and measured after 60 minutes. Excitation was fixed at 280 nm (slit 9 nm) and emission was collected from 300 to 450 nm (slit 9 nm). The spectra were recorded using a Synergy H1 Hybrid Multi-Mode Reader (FIG. 3A) and Cytation™ 5 Cell Imaging Multi-Mode Reader (FIG. 2) from BioTek and were averaged over 3 scans.
(§4) Table 3 illustrates the lipid concentration-induced 50% peptide binding onto a liposome. 50 μM peptide was fixed and incubated with titrated lipid (POPC vesicles or 3POPC/1POPG vesicles) at concentrations of 0, 12.5, 25, 50, 100, 250, 500, 1000, 2500, and 5000 μM in phosphate buffered saline (1X, pH 7.4). The lipid concentration that causes 50% peptide binding was determined using tryptophan fluorescent binding assay and the values are shown as lipid per peptide. IN-terminus is free, C-terminus: —W—NH2.

[5] = Tryptophan fluorescent binding assay, 3POPC/1POPG vesicles; conditions: 50 μM peptide, PBS pH 7.4
Description: as §1, §2, §3, §4

[6] = ANTS/DPX liposome leakage assay, POPC vesicles; type: biochemical; conditions: 0.5 mM vesicles
Description: (§5) In brief, 0.5 mM POPC vesicles (grey) or POPC:POPG vesicles (ratio 3:1, black) were incubated with peptide concentrations of 0, 0.02, 0.04, 0.08, 0.16, 0.32, 0.64, 1.25, 2.5, 5, 10, and 20 μM in each A) hydrochloric acid-adjusted phosphate buffered saline (1X, pH 4.8) and B) phosphate buffered saline (1X, pH 7.4).
as §2
(§6) 5 mM ANTS (8-aminonaphthalene-1,3,6-trisulfonic acid, disodium salt) and 12.5 mM DPX (p-xylene-bis-pyridinium bromide) were entrapped in 0.1 μm diameter extruded vesicles with lipids. Gel filtration chromatography using a Sephadex G-100 (GE Healthcare Life Sciences Inc) was used to remove external free ANTS/DPX from LUVs with entrapped contents. LUVs were diluted to 0.5 mM and used to measure the leakage activity by addition of aliquots of peptides. Leakage was measured after 3 h incubation. 10% Triton was used as the positive control to measure the maximum leakage of the vesicle. Fluorescence emission spectra were recorded using excitation and emission wavelength of 350 nm and 510 nm for ANTS/DPX using a BioTek Synergy H1 Hybrid Multi-Mode Reader.
(§7) Table 4 illustrates peptide concentration-induced 50 ANTS/DPX liposome leakage. 0.5 mM POPC and 3POPC/1POPG vesicles were fixed and incubated with titrated peptide concentration (0, 0.02, 0.04, 0.08, 0.16, 0.32, 0.64, 1.25, 2.5, 5, 10, and 20 μM) each in phosphate buffered saline (1X, pH 7.4) and hydrochloric acid-adjusted phosphate buffered saline (1X, pH 4.8). The values are shown as lipid per peptide. IN-terminus is free, C-terminus: —W—NH2.

[7] = ANTS/DPX liposome leakage assay, 3POPC/1POPG vesicles; type: biochemical; conditions: 0.5 mM vesicles
Description: as §5, §2, §6, §7

[8] = test system: MCF-10A (human breast epithelial cell); test: cells; conditions: read-out: IC50 MCF-10A; 72 hr, MTT
Description: HMLER (human mammary endothelial cancer cells), HMLER-shEcad (human mammary endothelial cancer stem cells), and MCF-10A (healthy human mammary endothelial) cells were maintained in Mammary Epithelial Cell Growth Medium (MEGM) with supplements and growth factors: bovine pituitary extract (BPE), hydrocortisone, human epidermal growth factor (hEGF), insulin, and gentamicin/amphotericin-B. HEK293T (human embryonic kidney cell), and U2OS (homo sapiens bone osteosarcoma) cells were maintained in Dulbecco's Modified Eagle's Medium (DMEM) with a final concentration of 10% fetal bovine serum. The cells were grown in T75 flask at 310 K in a humidified atmosphere containing 5% CO2.
The colourimetric MTT (3-(4,5-dimethylthiazol-2-yl)-2,5-diphenyltetrazolium bromide) assay was used to determine the toxicity of the anti-cancer peptides and conventional anti-cancer drugs. 5×10^3 cells were seeded in each well of a 96-well microplate. The cells were incubated overnight. Elevated concentrations of the compounds (0, 0.1, 0.2, 0.4, 0.8, 1.6, 3.1, 6.3, 12.5, 25, 50 and 100 μM) were added and incubated for 72 hr with a total volume 200 μL. The stock solutions of the compounds were prepared as 5 mM solutions in DMSO and diluted using media or in pure water. The final concentration of DMSO in each well was either 0.5% or 0% and this amount was present in the untreated control. After 72 hr, 20 μL of a 4 mg/mL solution of MTT in PBS was added to each well, and the plate was incubated for an additional 4 hr. The MEGM/MTT mixture was aspirated and 100 μL of DMSO was added to dissolve the resulting purple formazan crystals. The absorbance of the solutions in each well was read at 550 nm wavelength. Absorbance values were normalized to either DMSO-containing or non DMSO-containing control wells and plotted as concentration of test compound versus % cell viability. ICso values were interpolated from the resulting dose dependent curves.
The peptides were screened against several different human cell lines and their cytotoxicity were determined. Cell lines utilised include MCF-10A (human breast epithelial cell), HMLER (human breast cancer bulk cell), HMLER-shEcad (human breast cancer stem cell), HEK293T (human embryonic kidney cell), and U2OS (human bone osteosarcoma).

[9] = test system: U2OS (human bone osteosarcoma); test: MTT cytotoxicity assay, U2OS; type: cell-based; conditions: 72 hr

## GLLHLLELLLHAAG [HEH]
[1]
  IC50: 28.6 ± 10.8 µM
[2]
  IC50: 11 ± 1.06 µM
[3]
  IC50: 8.8 ± 1.7 µM
[4]
  Lipid Concentration-induced 50% Peptide Binding (L/P) POPC Vesicle: 0.88 L/P
[5]
  Lipid Concentration-induced 50% Peptide Binding (L/P) 3POPC/1POPG Vesicle: 3.50 L/P
[6]
  Peptide Concentration-induced 50% ANTS/DPX leakage at pH 4.8 (L/P) POPC Vesicle: 173 L/P
  Peptide Concentration-induced 50% ANTS/DPX leakage at pH 7.4 (L/P) POPC Vesicle: 995 L/P
[7]
  Peptide Concentration-induced 50% ANTS/DPX leakage at pH 4.8 (L/P) 3POPC/1POPG Vesicle: 24 L/P
  Peptide Concentration-induced 50% ANTS/DPX leakage at pH 7.4 (L/P) 3POPC/1POPG Vesicle: 505 L/P

## GLLHLLELLLKAAG [HEK]
[1]
  IC50: 2.35 ± 1.06 µM
[2]
  IC50: 3.45 ± 2.19 µM
[8]
  IC50: 29.8 ± 7.35 µM
[3]
  IC50: 6.95 ± 1.63 µM
[4]
  Lipid Concentration-induced 50% Peptide Binding (L/P) POPC Vesicle: 0.44 L/P
[5]
  Lipid Concentration-induced 50% Peptide Binding (L/P) 3POPC/1POPG Vesicle: 0.46 L/P
[6]
  Peptide Concentration-induced 50% ANTS/DPX leakage at pH 4.8 (L/P) POPC Vesicle: 97 L/P
  Peptide Concentration-induced 50% ANTS/DPX leakage at pH 7.4 (L/P) POPC Vesicle: 755 L/P
[7]
  Peptide Concentration-induced 50% ANTS/DPX leakage at pH 4.8 (L/P) 3POPC/1POPG Vesicle: 411 L/P
  Peptide Concentration-induced 50% ANTS/DPX leakage at pH 7.4 (L/P) 3POPC/1POPG Vesicle: 386 L/P

## GLLHLLHLLLEAAG [HHE]
[1]
  IC50: 16.7 ± 2.26 µM
[2]
  IC50: 10.8 ± 0.78 µM
[9]
  IC50: 53.2 ± 5.3 µM
[3]
  IC50: 18.4 ± 3.75 µM
[4]
  Lipid Concentration-induced 50% Peptide Binding (L/P) POPC Vesicle: 1.00 L/P
[5]
  Lipid Concentration-induced 50% Peptide Binding (L/P) 3POPC/1POPG Vesicle: 0.75 L/P
[6]
  Peptide Concentration-induced 50% ANTS/DPX leakage at pH 4.8 (L/P) POPC Vesicle: 143 L/P
  Peptide Concentration-induced 50% ANTS/DPX leakage at pH 7.4 (L/P) POPC Vesicle: 842 L/P
[7]
  Peptide Concentration-induced 50% ANTS/DPX leakage at pH 4.8 (L/P) 3POPC/1POPG Vesicle: 113 L/P
  Peptide Concentration-induced 50% ANTS/DPX leakage at pH 7.4 (L/P) 3POPC/1POPG Vesicle: 411 L/P

## GLLHLLHLLLHAAG [HHH]
[1]
  IC50: 21.1 ± 6.93 µM
[2]
  IC50: 9.5 ± 0.99 µM
[8]
  IC50: 79 ± 11.3 µM
[3]
  IC50: 30.6 ± 4.81 µM
[4]
  Lipid Concentration-induced 50% Peptide Binding (L/P) POPC Vesicle: 0.46 L/P
[5]
  Lipid Concentration-induced 50% Peptide Binding (L/P) 3POPC/1POPG Vesicle: 0.82 L/P
[6]
  Peptide Concentration-induced 50% ANTS/DPX leakage at pH 4.8 (L/P) POPC Vesicle: 173 L/P
  Peptide Concentration-induced 50% ANTS/DPX leakage at pH 7.4 (L/P) POPC Vesicle: 1133 L/P
[7]
  Peptide Concentration-induced 50% ANTS/DPX leakage at pH 4.8 (L/P) 3POPC/1POPG Vesicle: 50 L/P
  Peptide Concentration-induced 50% ANTS/DPX leakage at pH 7.4 (L/P) 3POPC/1POPG Vesicle: 469 L/P
